Patent US10323254B2, “Method for regulating plant growth” (RIKEN, priority 2015, dated 2019)

System: BSS1-GFP
Assay: Fluorescence microscopy of punctate BSS1-GFP in transgenic seedlings
Format: in vivo, Arabidopsis thaliana
Conditions: root cells of BSS1-GFP plants treated with 50 μM BFA for 1 hour
Description: FIGS. 5C to 5E show analysis of BSS1-GFP puncta signal intensities upon treatment with Brz and BL. Seven-day-old BSS1-GFP transgenic seedlings were treated for 3 hours with 3 μM Brz (Brz), an equal volume of DMSO (Mock), or 100 μM BL (BL). […] The results are represented as the mean±s.d. The signal intensity was measured using ImageJ software. […]
The plants that were transformed with the CaMV35S-BSS1-GFP construct BSS1(-GFP)-OX and the CaMV35S-BIL1-GFP construct BIL1-GFP-OX were observed via confocal laser scanning microscopy with a BX60 fluorescence microscope (Olympus) equipped with a Model CSU10 confocal scanner (Yokogawa Electric) and LSM700 (Zeiss).
FM4-64 (Molecular Probes) dissolved in water was applied to Arabidopsis plants at a final concentration of 4 μM for 3 minutes. The plants were washed with water to remove the excessive amount of the stain and observed. A DMSO-base stock solution of Brefeldin A (BFA) (Sigma) was applied to the cells at a final concentration of 50 μM for 1 hour.
The images were analyzed using ImageJ software. To measure the ratio of the nuclear and cytosolic signals of BIL1-GFP for each cell, the signal intensities in the nucleus and cytosol were calculated from the mean of the intensity in each area. The nuclear to cytosolic signal ratio was then calculated for each cell. The average nuclear/cytosolic signal ratio and standard error were calculated from measurements of at least 54 cells from each line (FIG. 9B). Line scan measurements from the vacuole to the nucleus through the cytosol were performed, and representative plot profiles of sample measurements are presented in FIG. 5C.

In the case of `C[C@H]1CCC/C=C/[C@@H]2C[C@H](O)C[C@H]2[C@H](O)/C=C/C(=O)O1` [BFA, Brefeldin A], the “formation of punctate BSS1” value was “not inhibited”.
